Data set [1] concerns A549 cells. The data set can be described thus: Proliferation assay (IncuCyte ZOOM), A549. The format is cell-based. The following applies: Homo sapiens, read-out: IC50 from proliferation curves. The protocol:
(§1) Analysis was performed using IncuCyte ZOOM (Essen BioScience) with images acquired every 3 hr for up to 72 hr. Four images (proliferation) and one image (wound healing) were captured per well for each time point. Data were normalized to controls, and values for 50% effective concentration were calculated using Prism V7.0 (GraphPad software, San Diego, Calif.).
In vitro phenotypic assay. […] Proliferation and migration curves were generated using IncuCyte ZOOM (Essen BioScience) with images acquired every 3 hr over a 72 hr timeframe. Images were captured per well for each time point. Data were normalized to controls, and values for 50% inhibitory concentration were calculated using Prism V8.0 (GraphPad software).

In the next data set the test system is H226 cells. The data set can be described thus: Proliferation assay (IncuCyte ZOOM), H226. The class given is cell-based. The following applies: Homo sapiens, NCI-H226; H226 squamous cell cancer line; read-out: IC50 from proliferation curves. Here is the method:
as §1

In the next data set the test system is A549 mouse xenograft. The data set can be described thus: Xenograft study of TP-0903 treatment. The class given is in vivo. The following applies: oral 120 mg/kg twice weekly or 80 mg/kg daily. The protocol:
Xenograft study of TP-0903 treatment. Mouse xenografts were implanted subcutaneously in the hind flank of the athymic nude mice. Tumor volumes were allowed to grow to a medium size (approximately 100 mm^3) before stratification and initiation of dosing. General health, tumor volumes, and bodyweights were followed over the course of the study.
Xenograft study of TP-0903 treatment. Mouse xenografts were implanted subcutaneously in the hind flank of the athymic nude mice. Tumor volumes were grown to a medium size (˜100 mm^3) before stratification and dose initiation. General health, tumor volumes, and bodyweights were followed over the course of the study.

Data set [2] has as its system A549 cells. The data set can be described thus: Atomic force microscopy, A549. The format is cell-based, human. The note with it: A549, 40 nmol/L, 24 hr. An excerpt:
(§2) Atomic force microscopy. […] Briefly, live cells cultured were imaged in 60 mm dishes with a Nanoscope Catalyst AFM (Bruker, Billerica, Mass.) mounted on a Nikon Ti inverted epifluorescent microscope. […] To collect the nanomechanical phenotypes of single cells immersed in culture media, 30×30 μm images were captured with a resolution of 256×256 pixels using the PeakForce Quantitative Nanomechanical Mapping (QNM) AFM (Bruker, Billerica, Mass.). For imaging, […]-AIR (Bruker, Billerica, Mass.) probes were applied with the nominal spring constant 0.4 N/m. Following the Sneddon model and the Sokolov's rules, nanomechanical parameters were calculated with Nanoscope Analysis software v.1.7 (Bruker, Billerica, Mass.) using retrace images. Images of at least 15 cells representing each tested case in three biological replicates were collected.
(§3) Atomic force microscopy (AFM). […] Briefly, live cells cultured in 60 mm dishes were imaged with a Nanoscope Catalyst AFM (Bruker) mounted on a Nikon Ti inverted epifluorescent microscope. […] To collect the nanomechanical phenotypes of single cells immersed in culture media, 30×30 μm images were captured with a resolution of 256×256 pixels using the Peak Force Quantitative Nanomechanical Mapping (QNM) AFM (Bruker). For imaging, […]-AIR probes were used with the nominal spring constant 0.4 N/m. Following the Sneddon model and the Sokolov's rules, nanomechanical parameters were calculated with Nanoscope Analysis software v.1.7 using retrace images.

Another data set relates to H2009 cells. Description: Atomic force microscopy, H2009. The format is cell-based, human.
Description: as §2, §3

Another data set deals with A549 and H2009 cells. Description: CellTiter-Glo cell viability, TP-0903 and/or ruxolitinib. The class given is cell-based, human. The note with it: 20, 30 and 40 nmol/L, 72 hr. The protocol: Cell lines. A549 and H2009 cell lines were obtained from and authenticated by the American Type Culture Collection, and routinely maintained in RPMI-1640 medium supplemented 10% FBS, penicillin (100 units/mL) and streptomycin ([…]) in aired with 5% CO^2 at 37° C. The absence of Mycoplasma contamination was validated using DAPI staining. […] The CellTiter-Glo Luminescent Cell Viability assay was used to determine cell responsiveness. shRNA knockdown was performed in A549 cells by using lentiviral delivery of short-hairpin AXL or vehicle plasmid pLKO.1 puro in two biological repeats (Addgene; Table 3).

The test system of data set [3] is A549 cells. The data set can be described thus: RNA-seq of TP-0903-treated A549 cells. The following applies: A549, 40 nmol/L. The class given is cell-based, human. The protocol: RNA-seq. Total RNA was extracted from TP-0903-treated and AXL-knockdown A549 cells and from respective controls in two biological replicates by using the PureLink RNA Mini Kit (Thermo Fisher Scientific). Sequencing of cDNAs was performed with Illumina HiSeq3000 as per manufacturer's instructions. Paired-end FASTQ files were generated and aligned with the human reference genome GRCh38 by using STAR alignment software. RSEM was applied to quantify gene expression levels, and fragments per kilobase of transcript per million (FPKM) mapped reads were calculated. The different expression levels of genes were compared between control and treatment groups by using RSEM software. […] Both gene sets were used to perform pathway enrichment analysis on Gene Ontology Consortium (http://geneontology.org/) by using Reactome pathway databases in PANTHER [45, 46]. Significant pathways were further analyzed with gene sets downloaded from the Molecular Signatures Database v6.2 (http://software.broadinstitute.org/gsea/msigdb/). Fold changes of candidate genes were calculated on the basis of log FPKM values and used to generate heat maps.
RNA-seq. […] The RSEM software was applied to quantify expression levels, and fragments per kilo base of transcript per million (FPKM) mapped reads were calculated. […]

For another data set, the system named is A549 lung cancer cells. Description: Luminex multi-cytokine assay. The class given is cell-based, human. The note with it: A549, 40 nmol/L, 24, 48, 72 hr. Here is the method:
Luminex multi-cytokine assay. […] Condition medium was harvested in 24, 48 and 72 hr after incubation. Condition medium was then subjected to a cytokine assay by using MILLIPLEX® MAP Human Cytokine Panel 1 (38 Plex) (Millipore, HCYTA-60K-PXBK38) in Luminex™ FLEXMAP 3D™ Instrument System.

The test system of the next data set is two other TAM family. The note with it: refs [21, 22]; concentration not given; cited from earlier work.

pIC50: −log10 of the molar value. “Also recorded” adds a separate entry of the source.

As to `CN1CCN(Cc2ccc(Nc3ncc(Cl)c(Nc4ccccc4S(=O)(=O)N(C)C)n3)cc2)CC1` [TP-0903], the pIC50 in the data set on A549 cells [1] was 7.50. Also, in the data set on H226 cells, the pIC50 is 7.89. For the same molecule, in the data set with A549 mouse xenograft, the “effect on body weight” value was “without any adverse effects”. In addition, the “tumor size / growth” value in the data set on A549 mouse xenograft (21 days) is recorded as “substantial tumor size regression; also recorded: Growth inhibition was confirmed”. In the data set with A549 cells [2], the decreased deformation was found to be 25%, the increase in stiffness came to 3 fold and the increased adhesion is given as 50%. For the same molecule, the deformation result with H2009 cells (H2009) is given as “not significantly affected”. In the data set on H2009 cells (H2009, 40 nmol/L, 24 hr), this molecule yielded an increase of adhesion of 35% and an increase of stiffness of 61%. Moreover, the “sensitivity (cell viability), A549 compared with H2009” value with A549 and H2009 cells is “more sensitive”. Moreover, the “IL-11 expression (RNA-seq)” value in the data set on A549 cells [3] is on record as “down-regulated significantly”. Also, in the data set with A549 cells [3] (listed as TP0903), the “IL-11 expression (RNA-seq)” value is listed as “markedly downregulated”. Besides, in the data set on A549 lung cancer cells, the “IL-8, VEGF, and IL-11 secretion” value was “decreased”. Also, the “inhibition of two other TAM family” value in the data set with two other TAM family is reported as 80%.

Values taken from patent publication US20220308062A1, “METHODS FOR PREDICTING DRUG RESPONSIVENESS IN SAMPLES FROM CANCER SUBJECTS” (Board of Regents, The University of Texas System, priority 2019, published 2022).
